Experimental data: publication PMC6423129, “Activity and structural analysis of GRL-117C: a novel small molecule CCR5 inhibitor active against R5-tropic HIV-1s” (Scientific Reports, 2019)
Read-outs that look alike come from different tables or passages of the source. Marks after values point to notes of the source that are not given here.

Key:
pCH040.c/2625 = assay: MAGI assay, T/F HIV-1 clone pCH040.c/2625; assay type: cell-based
Source text: (§1) We also examined the activity of GRL-compounds against Transmitter/founder (T/F) HIV-1 viruses. T/F viruses are involved in the initial infection. It is considered that T/F viruses virtually always use CCR5 rather than CXCR4 and infect T cells but not macrophages because […] of CD4 is needed to mediate virus entry for the initial transmission[20]–[24]. […] We obtained four HIV-1 T/F infectious clones. We determined the antiviral activity of GRL-117C, GRL-10007C and GRL-10018C on these HIV-1 clones using MAGI assay.
(§2) MAGI-CCR5 cells[18] were maintained in DMEM supplemented with 10% fetal calf serum (FCS: Gemini Bio-Products, West Sacramento, CA), 200 μg/ml G418, 100 μg/ml hygromycin B, and 100 μg/ml zeomycin. The Chinese hamster ovary (CHO) cells expressing CCR5[19] were maintained in Ham’s F-12 medium (GIBCO-BRL, Rockville, MD) supplemented with 10% FCS, 50 U/ml penicillin, and 50 μg/ml streptomycin in the presence of 5 μg/ml blasticidin S hydrochloride. TZM-bl cells were obtained from the NIH AIDS Reagent Program, and were cultured in DMEM with 10% FCS. Peripheral blood mononuclear cells (PBMCs) were isolated from buffy coats of HIV-1 seronegative individuals, and were activated with 10 μg/ml phytohemagglutinin (PHA) prior to use[16]. A laboratory wild-type R5-HIV-1 strain (HIV-1Ba-L)[37] was employed for drug susceptibility assays. AD101 (experimental CCR5 inhibitor) and VVC-resistant HIV clones[7],[8] were provided by Dr. John P. Moore of Cornell University for this study. The clones were propagated with activated PBMCs, and were used for the assays. […] The following reagents (plasmids) for T/F HIV-1 viruses[22],[24] were obtained through the NIH AIDS Reagent Program, Division of AIDS, NIAID, NIH: pCH040.c/2625 (cat# 11740), pCH106.c/2633 (cat# 11743), pTHRO.c/2626 (cat# 11745), and pCH058.c/2960 (cat# 11856), from Dr. John Kappes and Dr. Christina Ochsenbauer.
(§3) Antiviral assays using PHA-PBMCs (p24 assay) were conducted as previously reported[16],[38]. In brief, PHA-PBMCs (1 × 10^6/ml) were exposed to 50 TCID50 of HIV-1Ba-L or drug-resistant HIV-1 infectious clones in the presence or absence of various concentrations of drugs; 10-fold serial dilutions were performed in 96-well microculture plates. The amount of p24 antigens produced by the cells was determined on day 7 in the culture via a commercially available ELISA kit (PerkinElmer). The p24 production level in drug-free control cell cultures was used as the reference. […] Antiviral assays using MAGI-CCR5 cells (MAGI assay) were conducted as previously reported[16],[39]. Single-round virus infection assays using TZM-bl cells infected with R5-HIV-1s (HIV-1YU2, HIV-1KP-5pc, and HIV-1KP-5mvcR)[10] were also conducted as previously described.

pCH0.6.c/2633 = assay: MAGI assay, T/F HIV-1 clone pCH0.6.c/2633; assay type: cell-based
Source text: as §1, §2, §3

R5-HIV-1Ba-L = assay: MAGI assay using MAGI/CCR5 cells and R5-HIV-1Ba-L; assay type: cell-based; settings: Ba-L (MAGI)
Description: (§4) MAGI-CCR5 cells[18] were maintained in DMEM supplemented with 10% fetal calf serum (FCS: Gemini Bio-Products, West Sacramento, CA), 200 μg/ml G418, 100 μg/ml hygromycin B, and 100 μg/ml zeomycin. The Chinese hamster ovary (CHO) cells expressing CCR5[19] were maintained in Ham’s F-12 medium (GIBCO-BRL, Rockville, MD) supplemented with 10% FCS, 50 U/ml penicillin, and 50 μg/ml streptomycin in the presence of 5 μg/ml blasticidin S hydrochloride. TZM-bl cells were obtained from the NIH AIDS Reagent Program, and were cultured in DMEM with 10% FCS. Peripheral blood mononuclear cells (PBMCs) were isolated from buffy coats of HIV-1 seronegative individuals, and were activated with 10 μg/ml phytohemagglutinin (PHA) prior to use[16]. A laboratory wild-type R5-HIV-1 strain (HIV-1Ba-L)[37] was employed for drug susceptibility assays. AD101 (experimental CCR5 inhibitor) and VVC-resistant HIV clones[7],[8] were provided by Dr. John P. Moore of Cornell University for this study. The clones were propagated with activated PBMCs, and were used for the assays. A clinical HIV-1 strain, HIV-1KP-5pc, and an MVC-resistant isolate, HIV-1KP-5mvcR, were prepared and used for antiviral assays, as previously described[10],[38]. The following reagents (plasmids) for T/F HIV-1 viruses[22],[24] were obtained through the NIH AIDS Reagent Program, Division of AIDS, NIAID, NIH: pCH040.c/2625 (cat# 11740), pCH106.c/2633 (cat# 11743), pTHRO.c/2626 (cat# 11745), and pCH058.c/2960 (cat# 11856), from Dr. John Kappes and Dr. Christina Ochsenbauer.
as §3

pTHRO.c/2626 = assay: MAGI assay, T/F HIV-1 clone pTHRO.c/2626; assay type: cell-based
Source text: as §1, §2, §3

R5-HIV-1BaL = assay: p24 assay using PBMCs and R5-HIV-1BaL; assay type: cell-based; settings: Ba-L (PBMCs), day 7
Description: as §4, §3

CCR5 [1] = target: T1, CCR5 (Homo sapiens, UniProt P51681); assay: Inhibition of 125I-MIP-1α binding to CCR5 (CCR5+ CHO cells)
T1 construct: expressed in transfected cells; host or cells: Chinese hamster ovary (CHO) cells expressing CCR5
Description: (§5) In order to determine whether GRL derivatives block the binding of CC-chemokines to CCR5, we conducted a CC-chemokine binding inhibition assay using ^125I-labeled CC-chemokines (^125I-RANTES, ^125I-MIP-1α, and ^125I-MIP-1β) and CCR5 expressing cells.
(§6) CCR5^+ CHO cells were incubated with (A) ^125I-MIP-1α, (B) ^125I-MIP-1β, and (C) ^125I-RANTES (200 ng/ml) in the presence or absence of varying concentrations of CCR5 inhibitors. Data are shown as means ± s.d. of three independent experiments.
(§7) The inhibition of the binding of ^125I-labeled CC-chemokines ([^125I] RANTES, [^125I] MIP-1α, or [^125I] MIP-1β) to CCR5 by various CCR5 inhibitors was measured as previously described. Calcium flux inhibition assays were also performed with CCR5 inhibitors, and were carried out with the Fluo-4 Direct^TM calcium reagent (Invitrogen); assays were conducted as previously described with minor modifications. In brief, CHO-CCR5 cells (5 × 10^5 cells) were exposed to Fluo-4 Direct^TM calcium reagent for 60 min at 37 °C in RPMI containing 5% FCS. Cells were then incubated with the test compound for 30 min at varying concentrations. Subsequently, cells were exposed to either MIP-1α, MIP-1β, or RANTES at 200 ng/ml. Relative increases in cytosolic Ca^2+ levels after chemokine exposure were determined with flow cytometry (FACSCalibur, BD Biosciences), and IC50 values of cytosolic Ca^2+ mobilization (Ca^2+ flux) were compared with the Ca^2+ flux level in drug-free control samples.

HIV-1KP-5mvcR = assay: TZM-bl single-round infection assay, MVC-resistant HIV-1KP-5mvcR; assay type: cell-based
Description: as §4, §3

CC1/85 cl.6 = assay: Anti-HIV-1 assay, drug-naive clinical strain CC1/85 cl.6; assay type: cell-based
Description: as §4, §3

pCH058.c/2960 = assay: MAGI assay, T/F HIV-1 clone pCH058.c/2960; assay type: cell-based
Source text: as §1, §2, §3

CCR5 [2] = target: T1, CCR5; assay: Inhibition of 125I-RANTES binding to CCR5 (CCR5+ CHO cells)
Description: as §5, §6, §7

[3] = tested on: CC101.19 cl.7 (AD101 resistant); assay: microbe, parasite or virus in culture; assay type: cell-based, HIV-1
Description: as §4, §3

[4] = tested on: D1/85.16 cl.23 (VVC resistant); assay: microbe, parasite or virus in culture; assay type: cell-based, HIV-1
Description: as §4, §3

CC1/85 cl.7 = assay: Anti-HIV-1 assay, drug-naive clinical strain CC1/85 cl.7; assay type: cell-based
Description: as §4, §3

CCR5 [5] = target: T1, CCR5; assay: Inhibition of 125I-MIP-1β binding to CCR5 (CCR5+ CHO cells)
Description: as §5, §6, §7

HIV-1YU2 = assay: TZM-bl single-round infection assay, HIV-1YU2; assay type: cell-based; settings: YU2, drug-sensitive, mean ± SD
Description: as §4, §3

[6] = tested on: Transmitter/founder (T/F) HIV-1 viruses; assay: MAGI assay, all four T/F viruses (range); assay type: cell-based; settings: four T/F HIV-1 clones, MAGI assay; read-out: IC50 values (range over four T/F viruses)
Source text: as §1
MAGI-CCR5 cells[18] were maintained in DMEM supplemented with 10% fetal calf serum (FCS: Gemini Bio-Products, West Sacramento, CA), 200 μg/ml G418, 100 μg/ml hygromycin B, and 100 μg/ml zeomycin. The Chinese hamster ovary (CHO) cells expressing CCR5[19] were maintained in Ham’s F-12 medium (GIBCO-BRL, Rockville, MD) supplemented with 10% FCS, 50 U/ml penicillin, and 50 μg/ml streptomycin in the presence of 5 μg/ml blasticidin S hydrochloride. TZM-bl cells were obtained from the NIH AIDS Reagent Program, and were cultured in DMEM with 10% FCS. […]
Antiviral assays using PHA-PBMCs (p24 assay) were conducted as previously reported[16],[38]. […] The amount of p24 antigens produced by the cells was determined on day 7 in the culture via a commercially available ELISA kit (PerkinElmer). […]

HIV-1KP-5pc = assay: TZM-bl single-round infection assay, HIV-1KP-5pc; assay type: cell-based; settings: KP-5pc, drug-sensitive clinical strain, TZM-bl assay, mean ± SD
Description: as §4, §3

[7] = Human immunodeficiency virus 1, MAGI
[8] = Human immunodeficiency virus 1, BAL
[9] = Human immunodeficiency virus 1, BAL, PBMC, 168 h

T1 sequence (P51681 whole entry): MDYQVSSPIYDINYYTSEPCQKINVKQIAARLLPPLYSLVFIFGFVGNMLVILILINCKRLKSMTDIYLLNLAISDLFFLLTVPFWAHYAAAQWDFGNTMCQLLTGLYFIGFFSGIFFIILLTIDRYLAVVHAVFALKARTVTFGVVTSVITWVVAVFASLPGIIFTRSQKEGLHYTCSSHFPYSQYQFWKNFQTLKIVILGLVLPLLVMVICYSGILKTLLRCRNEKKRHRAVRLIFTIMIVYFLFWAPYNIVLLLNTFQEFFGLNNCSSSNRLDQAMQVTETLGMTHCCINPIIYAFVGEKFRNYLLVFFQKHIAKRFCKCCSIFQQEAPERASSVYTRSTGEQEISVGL

Cc1cccc(C)c1C(=O)N1C2CCC1CC(N1CCN(C(C)c3ccc(C(F)(F)F)cc3)C(C)C1)C2 (centres unmarked) [GRL-10007C]
IC50 (pCH040.c/2625; [7]): 3.1 ± 0.3 nM | IC50 (pCH0.6.c/2633; [7]): 5.3 ± 3.4 nM | IC50 (R5-HIV-1Ba-L; [8]): 1.4 nM | IC90 (R5-HIV-1Ba-L; [8]): 9.5 nM | IC50 (pTHRO.c/2626; [7]): 3.2 ± 0.4 nM | IC50 (R5-HIV-1BaL; [9]): 16.9 nM | IC90 (R5-HIV-1BaL; [9]): 126 nM | EC50 (CCR5 [1]): 1.1 nM | activity against MVC-resistant HIV-1 (HIV-1KP-5mvcR) (HIV-1KP-5mvcR; in words, data not shown): failed to demonstrate activity | IC50 (CC1/85 cl.6; Human immunodeficiency virus 1): 12.5 nM | IC50 (pCH058.c/2960; [7]): 6.1 ± 3.2 nM | EC50 (CCR5 [2]): 628 nM | binding of 125I-RANTES remaining (CCR5 [2]; in the presence of 1 μM compound): more than 40% | IC90 ([3]; Human immunodeficiency virus 1): 472 nM | IC50 ([3]; Human immunodeficiency virus 1, CC101.19 cl.7 (AD101 resistant)): 41.1 nM | IC90 ([4]; Human immunodeficiency virus 1): 536 nM | IC50 ([4]; Human immunodeficiency virus 1, D1/85.16 cl.23 (VVC resistant)): 56.9 nM | IC50 (CC1/85 cl.7; Human immunodeficiency virus 1): 15.8 nM | IC90 (CC1/85 cl.7; Human immunodeficiency virus 1): 80.3 nM | EC50 (CCR5 [5]): 2.5 nM

Maraviroc [MVC]
IC50 (pCH040.c/2625; T/F clone pCH040.c/2625, MAGI assay, mean ± SD, read-out: IC50): 1.7 ± 0.1 nM | IC50 (pCH0.6.c/2633; T/F clone pCH0.6.c/2633, MAGI assay, mean ± SD, read-out: IC50): 2.3 ± 0.3 nM | IC50 (R5-HIV-1Ba-L): 0.7 nM | IC90 (R5-HIV-1Ba-L): 6.4 nM | IC50 (pTHRO.c/2626; T/F clone pTHRO.c/2626, MAGI assay, mean ± SD, read-out: IC50): 2.2 ± 0.8 nM | IC50 (R5-HIV-1BaL): 4.5 nM | IC90 (R5-HIV-1BaL): 21.6 nM | IC50 (HIV-1YU2): 3.5 ± 2.5 nM | IC90 (HIV-1YU2): 15 nM | IC50 [6]: 1.7 to 2.3 nM | IC50 (HIV-1KP-5mvcR; KP-5mvcR, MVC-resistant, TZM-bl assay, mean ± SD, read-out: IC50): 36 ± 28 nM | IC90 (HIV-1KP-5mvcR; KP-5mvcR, MVC-resistant, TZM-bl assay, mean ± SD, read-out: IC90 (converted)): 236 nM | IC50 (CC1/85 cl.6; CC1/85 cl.6, drug naive R5-HIV-1 clinical strain, read-out: IC50): 1.7 nM | IC50 (pCH058.c/2960; T/F clone pCH058.c/2960, MAGI assay, mean ± SD, read-out: IC50): 1.9 ± 0.1 nM | fold increases of IC50s compared to wild type (CC1/85 cl.7) ([3]; CC101.19 cl.7 (AD101 resistant) vs CC1/85 cl.7): (×15)^e fold | IC50 ([3]; CC101.19 cl.7 (AD101 resistant), read-out: IC50): 36.9 nM | IC90 ([3]; CC101.19 cl.7 (AD101 resistant), read-out: IC90): 486 nM | fold increases of IC50s compared to wild type (CC1/85 cl.7) ([4]; D1/85.16 cl.23 (VVC resistant) vs CC1/85 cl.7): (×11)^e fold | IC50 ([4]; D1/85.16 cl.23 (VVC resistant), read-out: IC50): 26.5 nM | IC90 ([4]; D1/85.16 cl.23 (VVC resistant), read-out: IC90): 376 nM | IC50 (CC1/85 cl.7; CC1/85 cl.7, drug naive R5-HIV-1 clinical strain, read-out: IC50): 2.5 nM | IC90 (CC1/85 cl.7; CC1/85 cl.7, drug naive R5-HIV-1 clinical strain, read-out: IC90): 20.6 nM | IC50 (HIV-1KP-5pc; read-out: IC50): 8.5 ± 3.6 nM | IC90 (HIV-1KP-5pc; read-out: IC90 (converted)): 81 nM
